Laboratory results published in PubChem BioAssay (NCI).
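Where inhibition never reached the appropriate level, the endpoint shown equals the highest concentration tested. Otherwise, values were interpolated linearly from a five-concentration, 48-hour dose response in 96-well plates. TGI denotes the concentration required for complete inhibition of growth.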

Experiments:
Experiment in all cases: NCI-60 cell line screen, 48 h
[1] = system: HCT-116 colon
[2] = system: OVCAR-8 ovarian
[3] = system: NCI-H226 lung
[4] = system: LOX IMVI melanoma
[5] = system: IGROV1 ovarian
[6] = system: SR leukemia
[7] = system: SF-268 CNS
[8] = system: UACC-257 melanoma
[9] = system: A549 NSCLC
[10] = system: HCT-15 colon
[11] = system: HL-60(TB) leukemia
[12] = system: OVCAR-5 ovarian
[13] = system: RXF 393 renal
[14] = system: U251 CNS
[15] = system: HCC-2998 colon
[16] = system: K-562 leukemia
[17] = system: ACHN renal
[18] = system: TK-10 renal
[19] = system: UO-31 renal
[20] = system: MALME-3M melanoma
[21] = system: HOP-92 NSCLC
[22] = system: OVCAR-4 ovarian
[23] = system: DLD-1 colon
[24] = system: SK-MEL-28 melanoma
[25] = system: HOP-18 NSCLC
[26] = system: OVCAR-3 ovarian
[27] = system: NCI-H23 lung
[28] = system: SNB-75 CNS
[29] = system: 786-0 renal
[30] = system: EKVX NSCLC
[31] = system: DMS 114 small cell lung
[32] = system: CAKI-1 renal
[33] = system: KM12 colon
[34] = system: CCRF-CEM leukemia
[35] = system: DMS 273 small cell lung
[36] = system: SK-MEL-2 melanoma
[37] = system: SW-620 colon
[38] = system: SNB-78 CNS
[39] = system: NCI-H522 lung
[40] = system: XF 498 CNS
[41] = system: SF-539 CNS
[42] = system: A498 renal
[43] = system: COLO 205 colon
[44] = system: HT29 colon
[45] = system: SN12C renal
[46] = system: KM20L2 colon
[47] = system: UACC-62 melanoma
[48] = system: MOLT-4 leukemia
[49] = system: M19-MEL melanoma
[50] = system: LXFL 529 NSCLC
[51] = system: HOP-62 NSCLC
[52] = system: M14 melanoma
[53] = system: SF-295 CNS
[54] = system: SK-OV-3 ovarian
[55] = system: SNB-19 CNS
[56] = system: SK-MEL-5 melanoma
[57] = system: NCI-H460 lung

For `CSc1cc(C(C)(C)C)ccc1C(O)c1ccc(C(C)(C)C)cc1SC`, the TGI [1] was 17.8 µM, the TGI [2] was 28.8 µM and the TGI [3] was 27 µM. It also gave a TGI [4] of 24.3 µM, a TGI [5] of 26.2 µM and a TGI [6] of 32.2 µM. It also gave a TGI [7] of 27.1 µM, a TGI [8] of 25.5 µM and a TGI [9] of 24.4 µM. It also gave a TGI [10] of 29.9 µM, a TGI [11] of 21.2 µM and a TGI [12] of 27 µM. The TGI [13] was 24.9 µM, the TGI [14] was 27.1 µM and the TGI [15] was 32.1 µM. It also gave a TGI [16] of 30.5 µM, a TGI [17] of 23.6 µM and a TGI [18] of 30.6 µM. For the same molecule, the TGI [19] was 18.6 µM, the TGI [20] was 29.9 µM and the TGI [21] was 28.9 µM. For the same molecule, the TGI [22] was 22.9 µM, the TGI [23] was 21.7 µM and the TGI [24] was 39.3 µM. For the same molecule, the TGI [25] was 34 µM, the TGI [26] was 24.9 µM and the TGI [27] was 29.8 µM. The TGI [28] was 32.3 µM, the TGI [29] was 22.7 µM and the TGI [30] was 21.2 µM. The TGI [31] was 22.5 µM, the TGI [32] was 24.9 µM and the TGI [33] was 25.8 µM. For the same molecule, the TGI [34] was 35.8 µM, the TGI [35] was 26.9 µM and the TGI [36] was 34.1 µM. For the same molecule, the TGI [37] was 23.9 µM, the TGI [38] was 40.3 µM and the TGI [39] was 21.9 µM. For the same molecule, the TGI [40] was 23.6 µM, the TGI [41] was 32.3 µM and the TGI [42] was 26.7 µM. It also gave a TGI [43] of 23 µM, a TGI [44] of 19.6 µM and a TGI [45] of 25.8 µM. It also gave a TGI [46] of 23.8 µM, a TGI [47] of 33.9 µM and a TGI [48] of 21.6 µM. For the same molecule, the TGI [49] was 23.5 µM, the TGI [50] was 32.5 µM and the TGI [51] was 27.3 µM. For the same molecule, the TGI [52] was 26.9 µM, the TGI [53] was 22.6 µM and the TGI [54] was 32.2 µM. The TGI [55] was 34.3 µM, the TGI [56] was 27.5 µM and the TGI [57] was 31.4 µM.
